Our source for the IC50, IC90 and CC50 values is PubChem BioAssay AID1626 (SRMLSC, 2009).

As a reminder, the IC50 is the concentration at which inhibition is half-maximal. In general, IC90 refers to the concentration needed for an effect of 90%. Low readings indicate an effect from little substance, high ones a need for much substance. The CC50 is the concentration at which the toxic effect on the cells reaches its halfway point.

This assay concerns M. tuberculosis H37Rv growth inhibition. Description: M. tuberculosis H37Rv growth inhibitors, H37Rv strain (AID 1626). The note with it: for IC90: measured here: IC90 against H37Rv; for CC50: measured here: Vero cell cytotoxicity.

Turning to `Cc1cc2ncn(/N=C/c3ccc([N+](=O)[O-])s3)c2cc1C`, the IC50 is < 0.195 µM, the IC90 turned out to be 0.282 µM and the CC50 was found to be 8.74 µM.
Regarding `O=C(Oc1ccc2ccc(O)cc2c1)C1CCCCC1`, the IC90 was > 100 µM.
For `Cn1c(O)c(C(=Nc2ccccc2)SCc2ccccc2Cl)c(=O)n(C)c1=O`, the IC50 was 2.23 µM, the IC90 was 2.76 µM and the CC50 was found to be 22.7 µM.
In the case of `CCOc1ccc(N=Cc2c(O)n(-c3ccc(C)c(C)c3)c(=O)[nH]c2=O)cc1`, the IC50 was < 0.195 µM and the IC90 was > 100 µM.
On the same counts, the results for `Cn1nc(C(F)(F)F)c2cc(NC(=O)OCC(C)(C)C)sc21` are 13.3 µM and > 100 µM.
On the same counts, the results for `CCOC(=O)Cn1nnc(-c2ccc(OCC(C)C)cc2)n1` are 16.6 µM and > 100 µM.
Regarding `CCc1nnc(NC(=O)c2cccc(C(=O)Nc3nnc(CC)s3)n2)s1`, the IC90 was determined as 1.09 µM and the CC50 was 3.62 µM.
`Cn1c(-c2c(N)n(-c3ccccc3)c3nc4ccccc4nc23)nc2ccccc21`: the IC50 is 0.331 µM, the concentration for an effect of 90% (IC90) was > 100 µM and the CC50 is > 40 µM.
Turning to `O=C(NCCc1c[nH]c2ccccc12)c1cc2ccccc2oc1=O`, the IC50 is < 0.195 µM and the IC90 is < 0.195 µM.
As for `CCOC(=O)C1CCN(c2nc3cc(OC)ccc3cc2C#N)CC1`, the IC50 was 8.91 µM and the 90% effect concentration (IC90) was found to be 14.2 µM.
In the same order, the values of `C#CCOCCOCCOCCNc1nc(N2CCN(C(=O)[C@H](Cc3ccc(O)cc3)n3cc([C@@H](N)CC(C)C)nn3)CC2)nc(N2CCN(C(=O)[C@H](Cc3cc4ccccc4[nH]3)n3cc([C@@H](N)CC(C)C)nn3)CC2)n1` are 11.7 µM and 16.7 µM.
Consider `CCCn1c(NC(=O)c2cccc(C)c2C)nc2ccccc21`, for which the IC50 was 1 µM, the IC90 was found to be 3.63 µM and the cytotoxic concentration (CC50) stood at 24.7 µM.
On the same counts, the results for `C=C1C(=O)O[C@@H]2C[C@@H](C)[C@@H]3C=CC(=O)[C@@]3(C)[C@@H](OC(=O)CC(=O)O[C@H]3[C@@H]4C(=C)C(=O)O[C@@H]4C[C@@H](C)[C@@H]4C=CC(=O)[C@]43C)[C@H]12` are 1.47 µM, 3.35 µM and 1.4 µM.
`COc1cc2c(cc1OC)C1(Nc3c-2c(-c2ccccc2)nn3-c2ccccc2)C(=O)Nc2ccccc21` (centres undefined): the IC50 is 7.21 µM, the IC90 is 13.2 µM and the CC50 was found to be 23.7 µM.
With `COc1ccc(NC(=O)CN(C)CC(=O)Nc2ccc3c(c2)CCC3)cc1`, the IC50 was 20.6 µM and the IC90 was > 100 µM.
Turning to `CCOc1ccc2nc(NC(=O)CSc3nnnn3C3CCCCC3)sc2c1`, the IC50 is 56.4 µM and the IC90 is > 100 µM.
Regarding `Cc1ccc(Cc2cnc(NC(=O)c3cccs3)s2)cc1`, the IC50 is 5.91 µM, the IC90 amounted to 6.69 µM and the CC50 is > 40 µM.
For the molecule `CCOC(=O)C1(CCOc2ccccc2)CCN(C(=O)c2ccc(-n3cccn3)cc2)CC1`, the IC50 is 27.2 µM, the IC90 is > 100 µM and the 50% cytotoxic concentration (CC50) is > 40 µM.
In the same order, the values of `Cc1[nH]nc2c1C(c1ccc(-c3ccc(Cl)cc3)o1)C(C#N)=C(N)O2` (centres undefined) are 0.749 µM, 91.5 µM and > 40 µM.
In the case of `Nc1ccc2oc(-c3cccc(Br)c3)nc2c1`, the IC50 was 3.98 µM and the 90% effect concentration (IC90) is > 100 µM.
Consider `Cc1ccc(-c2ccc(/C=N/c3ncn[nH]3)o2)cc1Cl`, for which the IC50 was 30.2 µM and the IC90 was > 100 µM.
`O=[N+]([O-])c1ccc(-c2ccc(/C=N/O)o2)cc1`: the IC90 is > 100 µM.
Regarding `O=C(Nc1ccc(OC(F)(F)F)cc1)N1CCN(c2ccnc3cc(Cl)ccc23)CC1`, the IC50 is 3.08 µM, the IC90 turned out to be 3.51 µM and the CC50 came to 8.59 µM.
With `CCOc1ccc2nc(NC(=O)CSc3nc(-c4ccccc4)c(C#N)c(=O)[nH]3)sc2c1`, the IC90 was > 100 µM.
As to `CCOC(=O)COc1ccc(-c2nnc(-c3ccccc3)o2)cc1`, the IC50 was 0.409 µM and the IC90 was determined as 3.76 µM.
Regarding `COc1ccc(Nc2nc(C)c3ccccc3n2)cc1`, the CC50 was > 40 µM.
Regarding `CCCc1ccc(-c2cc(C(=O)NC3=NCCS3)c3ccccc3n2)cc1`, the concentration for an effect of 90% (IC90) was > 100 µM and the CC50 is > 40 µM.
As to `O=C(Nc1ccc(Nc2ccncc2)cc1)c1ccc(Nc2ccnc3ccc([N+](=O)[O-])cc23)cc1[N+](=O)[O-]`, the IC50 was 1.39 µM, the IC90 was found to be 1.57 µM and the CC50 is > 40 µM.
With `Cc1ccc(CN=c2c([N+](=O)[O-])nn(-c3cccc(Cl)c3)n2O)cc1`, the IC50 is 2.8 µM and the IC90 was determined as 2.94 µM.
In the same order, the values of `O=C(OCC#CCSc1nnc(-c2ccc([N+](=O)[O-])cc2)o1)c1cccs1` are < 0.195 µM and 1.3 µM.
In the same order, the values of `CCCNC(=O)NC(=O)COc1ccc(-c2ccc(C#N)cc2)cc1` are 0.754 µM and > 100 µM.
On the same counts, the results for `CCOC(=O)CSc1ccc(-c2nc3cc(C)c(C)cc3[nH]2)cn1` are 1.09 µM and 2.24 µM.
Turning to `OC(COC(c1ccc(Cl)cc1)c1ccc(Cl)cc1)CN1CCN(c2ccccn2)CC1` (centres undefined), the IC50 is 9.79 µM, the IC90 was 28.3 µM and the CC50 was 35.3 µM.
In the case of `Cc1coc2c1C(=O)C(=O)c1c-2ccc2c1CCCC2(C)C`, the IC50 is 3.23 µM and the concentration for an effect of 90% (IC90) amounted to 4.85 µM.
On the same counts, the results for `O=S(=O)(Nc1ccn(-c2ccccc2)n1)c1ccc(Br)cc1` are 30.1 µM and > 100 µM.
On the same counts, the results for `COc1cc(CC(=O)Nc2ccc3nc(SC)sc3c2)cc(OC)c1OC` are 11.3 µM and 16.1 µM.
In the same order, the values of `CCOC(=O)CSc1nnc(-c2ccc(NS(=O)(=O)c3ccc(C)cc3)cc2)o1` are 2.27 µM and 5.26 µM.
For the molecule `CCOC(=O)c1cccc(N/C=C/C(=O)c2ccc(OC)c(OC)c2)c1`, the IC50 is 24 µM and the IC90 is > 100 µM.
With `COc1ccc(N=C2C(=O)Nc3ccccc32)cc1`, the IC90 is > 100 µM.
For `COCCCN=C1NN=C(c2cc(C)n(Cc3ccccc3Cl)c2C)CS1`, the IC50 is 11.3 µM, the IC90 was 12.1 µM and the CC50 was 16.3 µM.
As to `CCCOc1ccc(NCC(=O)Nc2ccc(C)cc2C)cc1`, the IC50 was < 0.391 µM and the IC90 was > 100 µM.
In the case of `CCCCn1c(O)c(C(=O)/C=C/c2ccc3c(c2)OCO3)c(=O)[nH]c1=O`, the concentration for half-maximal inhibition (IC50) is 4.53 µM, the IC90 is 7.66 µM and the CC50 was > 40 µM.
Consider `Nc1nnc(SCc2ccc(F)cc2)s1`, for which the IC90 is > 100 µM.
As for `O=C(/C=C/c1ccc(Cl)c([N+](=O)[O-])c1)c1cccnc1`, the IC50 is 1.18 µM, the IC90 amounted to 2.47 µM and the CC50 was found to be 38.8 µM.
As to `Cc1ccc2nc(SCC(=O)Nc3ccc4c(c3)CCC4)[nH]c2c1`, the IC90 was > 100 µM.
For `CCSc1nnc(NC(=O)c2ccc3ccccc3n2)s1`, the IC50 is 0.628 µM, the IC90 worked out at 2.19 µM and the CC50 amounted to 38.1 µM.
As to `COc1ccc(N=C2C(=O)N3CCCc4cccc2c43)cc1`, the IC90 is > 100 µM.
For `O=c1c(C=Nc2ccc(Oc3ccccc3)cc2)c[nH]n1-c1cccc(Cl)n1`, the IC90 is > 100 µM and the CC50 is > 40 µM.
